Assay results: patent US20250099423A1, “PIPERAZINE-BASED AGONISTS OF LFA-1 AND VLA-4” (Texas Heart Institute, priority 2021, published 2025)

Tests used:
α4β1/VCAM-1 = target: T1, α4β1/VCAM-1 (Homo sapiens, UniProt P05556+P13612); assay: Static cell adhesion assay, Jurkat cells on VCAM-1 (α4β1/VCAM-1); format: cell-based; settings: ratio compound activity/control THI0019 (average 33 μM) run on the same plate
T1 construct: The Jurkat (VCAM-1 assays) and HSB (ICAM-1 assays) cell lines were obtained from American Type Culture Collection; endogenous in cells; host or cells: Jurkat cells (ATCC)
T1 sequence (P13612 34-1032): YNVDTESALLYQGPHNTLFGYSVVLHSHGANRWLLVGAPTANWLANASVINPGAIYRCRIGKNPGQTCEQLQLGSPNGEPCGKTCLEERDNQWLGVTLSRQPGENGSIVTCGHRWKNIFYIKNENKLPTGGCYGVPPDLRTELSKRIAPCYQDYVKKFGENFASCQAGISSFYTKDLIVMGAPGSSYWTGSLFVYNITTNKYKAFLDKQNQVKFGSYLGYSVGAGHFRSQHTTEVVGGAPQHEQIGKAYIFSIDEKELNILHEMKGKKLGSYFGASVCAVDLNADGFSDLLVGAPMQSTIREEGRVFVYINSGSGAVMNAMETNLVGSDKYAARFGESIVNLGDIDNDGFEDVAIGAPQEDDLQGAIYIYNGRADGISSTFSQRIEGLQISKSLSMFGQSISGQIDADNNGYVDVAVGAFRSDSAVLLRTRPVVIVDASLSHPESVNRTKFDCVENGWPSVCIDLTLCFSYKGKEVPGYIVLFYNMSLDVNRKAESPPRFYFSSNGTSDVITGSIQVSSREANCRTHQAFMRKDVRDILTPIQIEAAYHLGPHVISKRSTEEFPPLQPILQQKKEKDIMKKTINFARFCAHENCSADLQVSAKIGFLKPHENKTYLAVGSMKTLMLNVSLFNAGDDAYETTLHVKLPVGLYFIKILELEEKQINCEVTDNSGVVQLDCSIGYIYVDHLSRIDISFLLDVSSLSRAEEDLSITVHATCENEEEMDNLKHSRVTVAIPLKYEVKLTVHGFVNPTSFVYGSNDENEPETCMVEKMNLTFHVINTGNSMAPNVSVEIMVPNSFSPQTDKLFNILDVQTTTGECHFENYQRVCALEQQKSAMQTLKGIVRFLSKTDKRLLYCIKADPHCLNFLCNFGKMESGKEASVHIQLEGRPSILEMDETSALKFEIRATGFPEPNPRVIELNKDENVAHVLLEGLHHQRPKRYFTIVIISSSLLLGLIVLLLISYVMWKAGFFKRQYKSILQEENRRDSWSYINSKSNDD
T1 sequence (P05556 21-798): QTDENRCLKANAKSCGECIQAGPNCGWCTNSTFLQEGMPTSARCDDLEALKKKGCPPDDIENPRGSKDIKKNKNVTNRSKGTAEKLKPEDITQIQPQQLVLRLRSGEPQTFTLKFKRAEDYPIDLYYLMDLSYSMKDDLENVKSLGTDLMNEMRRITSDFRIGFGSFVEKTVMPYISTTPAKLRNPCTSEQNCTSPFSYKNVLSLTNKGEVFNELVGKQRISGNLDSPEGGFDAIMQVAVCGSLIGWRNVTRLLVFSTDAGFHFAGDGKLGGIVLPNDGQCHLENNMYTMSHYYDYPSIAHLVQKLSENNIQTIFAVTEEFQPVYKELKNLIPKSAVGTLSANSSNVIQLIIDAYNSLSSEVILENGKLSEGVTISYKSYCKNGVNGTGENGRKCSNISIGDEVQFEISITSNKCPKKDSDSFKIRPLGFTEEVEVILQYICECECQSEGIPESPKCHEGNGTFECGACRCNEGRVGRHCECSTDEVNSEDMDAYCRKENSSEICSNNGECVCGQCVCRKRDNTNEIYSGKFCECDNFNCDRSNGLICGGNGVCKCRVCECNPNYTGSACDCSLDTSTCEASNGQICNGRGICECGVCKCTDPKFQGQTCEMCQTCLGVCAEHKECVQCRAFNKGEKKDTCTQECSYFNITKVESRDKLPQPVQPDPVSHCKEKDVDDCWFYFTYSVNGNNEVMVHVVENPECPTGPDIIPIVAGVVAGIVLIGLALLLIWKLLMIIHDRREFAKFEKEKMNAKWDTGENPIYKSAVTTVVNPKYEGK
Experimental: (§1) For in vitro cell adhesion assays, compounds were dissolved in DMSO to make a series of stock solutions such that a 1:100 dilution in assay buffer would yield the desired final working concentrations in 1% DMSO (vehicle). Human VCAM-1 and ICAM-1 were purchased from R&D Systems (Minneapolis, MN). The Jurkat (VCAM-1 assays) and HSB (ICAM-1 assays) cell lines were obtained from American Type Culture Collection (Manassas, VA) and were maintained in recommended culture media.
(§2) Assays were performed as previously described in 1. Vanderslice, P., Woodside, D. G., Caivano, A. R., Decker, E. R., Munsch, C. L., Sherwood, S. J., Lejeune, W. S., Miyamoto, Y. J., McIntyre, B. W., Tilton, R. G., and Dixon, R. A. (2010) Potent in vivo suppression of inflammation by selectively targeting the high affinity conformation of integrin alpha4beta1. Biochem Biophys Res Commun 400, 619-624; and 2. Vanderslice, P., Biediger, R. J., Woodside, D. G., Brown, W. S., Khounlo, S., Warier, N. D., Gundlach, C. W. t., Caivano, A. R., Bornmann, W. G., Maxwell, D. S., McIntyre, B. W., Willerson, J. T., and Dixon, R. A. (2013) Small molecule agonist of very late antigen-4 (VLA-4) integrin induces progenitor cell adhesion. J Biol Chem 288, 19414-19428. VCAM-1 or ICAM-1 ligand in 50 μL of 50 mM Tris-HCl (pH 7.4), 150 mM NaCl, (TBS) was added to wells of a 96-well plate and allowed to coat overnight at 4° C. To maximize the window to evaluate agonist activity, a sub-optimal coating concentration of ligand was used, typically between 0.5 and 5 μg/mL in 50 μL TBS for VCAM-1 and ICAM-1 respectively. This ligand concentration corresponded approximately to that which would yield≤ 5% adhesion as determined by dose-response curves. Briefly, 2×10^6 cells were labeled for 30 minutes with calcein-AM (Molecular Probes), washed, resuspended in binding buffer, and added to triplicate wells of ligand-coated plates (2×10^5 cells/well) that had been blocked with 2% BSA. After a 30-minute incubation at 37° C., the plates were washed 3 times with binding buffer, the adherent cells were lysed, and fluorescence was measured on a Tecan Safire^2 plate reader. The binding buffer was PBS with 1 mM MgCl2, 50% FBS for α4β1/VCAM-1 assays and PBS with 2 mM MgCl2, 5 mM EGTA, 50% FBS for αLβ2/ICAM-1 assays. EC50 is defined as the concentration of compound required to achieve 50% of the maximal response.

LFA-1 = target: T2, LFA-1 (Homo sapiens, UniProt P05107+P20701); assay: Static cell adhesion assay, HSB cells on ICAM-1 (αLβ2/ICAM-1; LFA-1); format: cell-based; settings: Dose 3 μM, compound and THI0349 at the same concentration; ratio >1 = more potent agonist
T2 construct: The Jurkat (VCAM-1 assays) and HSB (ICAM-1 assays) cell lines were obtained from American Type Culture Collection; endogenous in cells; host or cells: HSB cells (ATCC)
T2 sequence (P20701 26-1170): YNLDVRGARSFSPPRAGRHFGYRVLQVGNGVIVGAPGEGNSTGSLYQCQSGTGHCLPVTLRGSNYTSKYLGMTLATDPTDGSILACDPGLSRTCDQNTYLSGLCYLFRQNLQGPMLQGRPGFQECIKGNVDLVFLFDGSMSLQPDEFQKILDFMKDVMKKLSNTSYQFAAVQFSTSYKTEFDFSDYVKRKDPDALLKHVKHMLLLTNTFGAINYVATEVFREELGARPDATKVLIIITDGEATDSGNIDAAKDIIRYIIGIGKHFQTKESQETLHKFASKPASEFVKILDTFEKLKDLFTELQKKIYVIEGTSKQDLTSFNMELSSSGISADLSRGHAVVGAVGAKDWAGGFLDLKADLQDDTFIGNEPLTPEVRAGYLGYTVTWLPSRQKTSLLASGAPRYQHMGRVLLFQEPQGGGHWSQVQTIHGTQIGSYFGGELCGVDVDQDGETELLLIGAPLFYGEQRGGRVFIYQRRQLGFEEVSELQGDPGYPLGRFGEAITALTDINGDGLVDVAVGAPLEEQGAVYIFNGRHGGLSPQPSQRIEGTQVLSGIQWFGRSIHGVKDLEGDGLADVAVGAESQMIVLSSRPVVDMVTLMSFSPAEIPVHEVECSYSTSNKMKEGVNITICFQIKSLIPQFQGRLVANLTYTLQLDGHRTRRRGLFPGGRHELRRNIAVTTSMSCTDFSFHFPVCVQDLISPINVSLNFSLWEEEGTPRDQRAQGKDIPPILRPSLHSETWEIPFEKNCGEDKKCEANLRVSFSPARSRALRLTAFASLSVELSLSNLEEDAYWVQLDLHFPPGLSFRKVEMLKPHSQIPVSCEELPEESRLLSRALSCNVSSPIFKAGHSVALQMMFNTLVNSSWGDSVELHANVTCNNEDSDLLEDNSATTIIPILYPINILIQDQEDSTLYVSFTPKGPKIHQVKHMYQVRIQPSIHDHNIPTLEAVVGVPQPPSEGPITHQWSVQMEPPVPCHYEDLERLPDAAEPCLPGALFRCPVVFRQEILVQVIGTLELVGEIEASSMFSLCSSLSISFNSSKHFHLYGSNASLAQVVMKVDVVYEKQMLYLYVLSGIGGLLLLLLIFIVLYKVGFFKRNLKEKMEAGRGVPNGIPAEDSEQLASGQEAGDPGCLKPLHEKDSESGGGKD
T2 sequence (P05107 23-769): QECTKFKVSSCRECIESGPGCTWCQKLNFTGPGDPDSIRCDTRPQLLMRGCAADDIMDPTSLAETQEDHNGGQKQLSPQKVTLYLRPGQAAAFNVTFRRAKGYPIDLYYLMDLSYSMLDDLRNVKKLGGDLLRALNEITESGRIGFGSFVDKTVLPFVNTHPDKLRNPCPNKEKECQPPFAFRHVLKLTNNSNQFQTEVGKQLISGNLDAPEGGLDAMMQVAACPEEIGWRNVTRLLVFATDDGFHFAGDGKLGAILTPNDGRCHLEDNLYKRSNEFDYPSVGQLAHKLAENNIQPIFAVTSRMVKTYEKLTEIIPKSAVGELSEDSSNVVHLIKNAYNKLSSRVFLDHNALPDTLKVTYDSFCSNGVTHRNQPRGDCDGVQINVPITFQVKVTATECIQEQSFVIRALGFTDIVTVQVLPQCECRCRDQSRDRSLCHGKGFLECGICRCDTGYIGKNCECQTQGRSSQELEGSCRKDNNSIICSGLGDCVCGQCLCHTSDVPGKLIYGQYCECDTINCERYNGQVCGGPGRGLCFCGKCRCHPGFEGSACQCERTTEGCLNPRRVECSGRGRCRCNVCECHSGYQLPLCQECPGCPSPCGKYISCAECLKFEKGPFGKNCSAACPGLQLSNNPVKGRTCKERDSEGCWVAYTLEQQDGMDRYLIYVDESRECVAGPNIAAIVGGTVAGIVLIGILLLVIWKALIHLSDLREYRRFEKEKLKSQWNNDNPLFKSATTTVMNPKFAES
Experimental: as §1, §2
THI0019 and THI0349 (average 11 μM) reported values here were obtained under the assay conditions reported herein and ran higher in the presence of serum than those values under different assay conditions. […] Relative to THI0019 (average 33 μM) as a control against CS1, the ratio of (compound activity/control) is as follows: Group I< or =1. Group II at least a ratio of >1 up to 2× that of THI0019 ran on the same plate; Group III is >2× of THI0019 but less than 5×; and Group IV>5× of THI0019 (with an upper limit of approximately 200 mM). In relation to LAD (Leukocyte Adhesion Deficiency), LFA-1 ratios are determined by dividing the relative fluorescence units (RFU) of each compound over that of the reference standard of THI0349, (RFU Compound/RFU of THI0349). Against LFA-1, the signal for THI0349 at 3 μM was compared to the claimed compounds at the same concentration.

LAD Raw Fluorescence Units against LFA-1; Ratio of raw counts Compound/THI0349 (LFA-1) | Structure (SMILES) | Average Ratio Compound to THI0019 (Activity against CS1) (α4β1/VCAM-1)
3.4 fold increased response | COc1cccc(CN(Cc2cccc(OC)c2)C(=O)OCCN2CC(=O)N(CCOC(=O)N(Cc3cccc(OC)c3)Cc3cccc(OC)c3)CC2=O)c1 [(2,5-dioxopiperazine-1,4-diyl)bis(ethane-2,1-diyl) bis(bis(3-methoxybenzyl)carbamate)] | Group I (Group I< or =1)
0.19 fold response | COc1ccc(CN(CC(C)C)C(=O)CN2CCN(CC(=O)N(Cc3ccc(OC)cc3)CC(C)C)C(=O)C2)cc1 [2,2′-(2-oxopiperazine-1,4-diyl)bis(N-isobutyl-N-(4-methoxybenzyl)acetamide)] | Group III (Group III is >2× of THI0019 but less than 5×)
– | O=C1CN(CC(=O)N(Cc2cccs2)Cc2cccs2)C(=O)CN1CC(=O)N(Cc1cccs1)Cc1cccs1 [2,2′-(2,5-dioxopiperazine-1,4-diyl)bis(N,N-bis(thiophen-2-ylmethyl)acetamide)] | Group III (Group III is >2× of THI0019 but less than 5×)
4.3 fold increased response | COc1ccc(CN(Cc2ccc(OC)cc2)C(=O)CCCCN2CCN(C(=O)OCc3ccccc3)CC2)cc1 [benzyl 4-(5-(bis(4-methoxybenzyl)amino)-5-oxopentyl)piperazine-1-carboxylate] | Group II (Group II at least a ratio of >1 up to 2× that of THI0019 ran on the same plate)
2.2 fold increased response | COc1ccc(CN(Cc2ccc(OC)cc2)C(=O)CN2CCN(C(=O)OCc3cccc(OC)c3)CC2)cc1 [3-methoxybenzyl 4-(2-(bis(4-methoxybenzyl)amino)-2-oxoethyl)piperazine-1-carboxylate] | Group II (Group II at least a ratio of >1 up to 2× that of THI0019 ran on the same plate)
1.42 fold increased response | COc1cccc(CN(Cc2cccc(OC)c2)C(=O)CN2CCN(C(=O)OCc3ccccc3)CC2)c1 [benzyl 4-(2-(bis(3-methoxybenzyl)amino)-2-oxoethyl)piperazine-1-carboxylate] | Group I (Group I< or =1)
5.9 fold increased response | COc1ccc(CN(Cc2ccc(OC)cc2)C(=O)CN2CCN(CC(=O)N(Cc3ccc(OC)cc3)Cc3ccc(OC)cc3)C(=O)C2)cc1 [2,2′-(2-oxopiperazine-1,4-diyl)bis(N,N-bis(4-methoxybenzyl)acetamide)] | Group I (Group I< or =1)
0.5 fold response | COc1ccc(CN(Cc2ccc(OC)cc2)C(=O)CN2CCN(C(=O)Cc3cccc(OC)c3)CC2=O)cc1 [N,N-bis(4-methoxybenzyl)-2-(4-(2-(3-methoxyphenyl)acetyl)-2-oxopiperazin-1-yl)acetamide] | Group III (Group III is >2× of THI0019 but less than 5×)
1.1 fold increased response | COc1ccc(CN(Cc2ccc(OC)cc2)C(=O)CN2CCN(Cc3cccc(OC)c3)CC2=O)cc1 [N,N-bis(4-methoxybenzyl)-2-(4-(3-methoxybenzyl)-2-oxopiperazin-1-yl)acetamide] | Group IV (Group IV>5× of THI0019 (with an upper limit of approximately 200 mM))
– | COc1cccc(CN(Cc2cccc(OC)c2)C(=O)CN2CC(=O)N(CC(=O)N(Cc3cccc(OC)c3)Cc3cccc(OC)c3)CC2=O)c1 [2,2′-(2,5-dioxopiperazine-1,4-diyl)bis(N,N-bis(3-methoxybenzyl)acetamide)] | Group I (Group I< or =1)
0.6 fold response | COc1ccc(CN(Cc2ccc(OC)cc2)C(=O)CN2CCN(C(=O)c3cccc(OC)c3)CC2=O)cc1 [2-(4-(3-methoxybenzoyl)-2-oxopiperazin-1-yl)-N,N-bis(4-methoxybenzyl)acetamide] | Group IV (Group IV>5× of THI0019 (with an upper limit of approximately 200 mM))
1.2 fold increased response | COc1ccc(CN(Cc2ccc(N(C)C)cc2)C(=O)CN2CCN(C(=O)c3cccc(OC)c3)CC2=O)cc1 [N-(4-(dimethylamino)benzyl)-2-(4-(3-methoxybenzoyl)-2-oxopiperazin-1-yl)-N-(4-methoxybenzyl)acetamide] | Group IV (Group IV>5× of THI0019 (with an upper limit of approximately 200 mM))
2 fold increased response | O=C1CN(CCOC(=O)N(Cc2cccs2)Cc2cccs2)C(=O)CN1CCOC(=O)N(Cc1cccs1)Cc1cccs1 [(2,5-dioxopiperazine-1,4-diyl)bis(ethane-2,1-diyl) bis(bis(thiophen-2-ylmethyl)carbamate)] | Group II (Group II at least a ratio of >1 up to 2× that of THI0019 ran on the same plate)
– | COc1ccc(CN(Cc2cccc(N(C)C)c2)C(=O)CN2CC(=O)N(CC(=O)N(Cc3ccc(OC)cc3)Cc3cccc(N(C)C)c3)CC2=O)cc1 | Group II (Group II at least a ratio of >1 up to 2× that of THI0019 ran on the same plate)
0.4 fold response | O=C(CN1CCN(CC(=O)N(Cc2cccs2)Cc2cccs2)CC1)N(Cc1cccs1)Cc1cccs1 [2,2′-(piperazine-1,4-diyl)bis(N,N-bis(thiophen-2-ylmethyl)acetamide)] | Group II (Group II at least a ratio of >1 up to 2× that of THI0019 ran on the same plate)
4.2 fold increased response | COc1ccc(CN(Cc2ccc(N(C)C)cc2)C(=O)CN2CCN(C(=O)OCc3cccc(OC)c3)CC2=O)cc1 [3-methoxybenzyl 4-(2-((4-(dimethylamino)benzyl)(4-methoxybenzyl)amino)-2-oxoethyl)-3-oxopiperazine-1-carboxylate] | Group II (Group II at least a ratio of >1 up to 2× that of THI0019 ran on the same plate)
0.9 fold response | COc1ccc(CN(CC(C)C)C(=O)CN2CCN(CC(=O)N(Cc3ccc(OC)cc3)CC(C)C)CC2)cc1 [2,2′-(piperazine-1,4-diyl)bis(N-isobutyl-N-(4-methoxybenzyl)acetamide)] | Group IV (Group IV>5× of THI0019 (with an upper limit of approximately 200 mM))
– | CN(C)c1ccc(CN(Cc2ccc(N(C)C)cc2)C(=O)CN2CC(=O)N(CC(=O)N(Cc3ccc(N(C)C)cc3)Cc3ccc(N(C)C)cc3)CC2=O)cc1 [2,2′-(2,5-dioxopiperazine-1,4-diyl)bis(N,N-bis(4-(dimethylamino)benzyl)acetamide)] | Group I (Group I< or =1)
– | COc1ccc(CN(Cc2ccc(OC)cc2)C(=O)CN2CCN(CC(=O)N(Cc3ccc(OC)cc3)Cc3ccc(OC)cc3)CC2)cc1 [2,2′-(piperazine-1,4-diyl)bis(N,N-bis(4-methoxybenzyl)acetamide)] | Group I (Group I< or =1)
